Structures are written as SMILES. Some results are limits rather than exact numbers.

One assay deals with iPSC-derived MEPs. Nature of the assay: Growth / expansion of MEP cultures (manual counts, trypan blue exclusion). It counts as cell-based, human. Here is the method: Plots were gated first in FSC vs. SSC and then from that population for PI ‘ and PE Hoechst’. […] (B) Representative phase contrast images of MEP population+FICZ. (C) Growth curve of day 15 MEPs+/−[…] FICZ. Cells were counted manually using trypan blue exclusion. Graphical data and the associated statistics are the result of three independent experiments per group.
High passage iPSCs were plated onto matrigel coated 6-well plates in iPSC media conditioned on iMEFs for 24 hours and supplemented with 2 ng/ml Rho Kinase Inhibitor and 20 ng/ml bFGF. After two days, iPSC media was replaced with Mesoderm DO-1 media: RPMI (Invitrogen A1049101) supplemented with 5 ng/mlhBMP-4 (R&D 314-BP-010), 50 ng/ml hVEGF (R&D 293-VE-010), 25 ng/mlhWnt3a (R&D 287-TC-500) and 10% KOSR. At Day 2, Mesoderm DO-1 media was replaced with Mesoderm D2 media: RPMI supplemented with 5 ng/ml hBMP-4, 50 ng/mlhVEGF, 20 ng/ml bFGF and 10% KOSR. Mesoderm D3 media consisted of the following: StemPro 34 (Invitrogen 10639011), 5 ng/ml hBMP-4, 50 ng/mlhVEGF, and 20 ng/ml bFGF. Mesoderm media for days 4 and 5 consisted of: StemPro 34, 15 ng/mlhVEGF, and 5 ng/ml bFGF. Day 6 mesoderm media: 74% IMDM (Invitrogen 12330061), 24% Hams F12 (Mediatech 10-080-CV), 1% B27 supplement (Invitrogen 12587-010), 0.5% N2-supplement (Invitrogen 17502-048), 0.5% BSA (Sigma A3059), 50 ng/ml hVEGF, 100 ng/mlbFGF, 100 ng/ml hSCF (R&D 255-SC-010), 25 ng/ml hFlt3 Ligand (R&D 308-FKN-005). Day 7 media: 74% IMDM, 24% Hams F12, 1% B27 supplement, 0.5% N2-supplement, 0.5% BSA, 50 ng/ml hVEGF, 100 ng/ml bFGF, 100 ng/ml hSCF, 25 ng/ml hFlt3 Ligand, 50 ng/ml hTPO (Genentech G140BT), 10 ng/ml IL-6 (R&D 206-IL-010), 0.5 U/ml hEPOgen and 0.2 uM 6-formylindolo[3,2-b]carbazole (FICZ) (Santa Cruz SC300019). After Day 7, 0.5 ml of Day 7 media was added to the culture daily without aspirating the media from the previous day. All base media mixes included 2 mM L-Glutamine (Invitrogen 25030081), 4×10^-4M Monothioglycerol (Sigma M1753), 100 ug/ml Primocin, and 50 ug/ml Ascorbic Acid. Cells in suspension were collected and assayed at Days 10-13 or split for long-term culture.
6-formylindolo[3,2-b]carbazole (FICZ), an AHR small molecule agonist, and CH223191, an AHR competitive inhibitor were used for these assays. CH223191 was added to mesoderm cultures at Day 6 at 5 μM (lx) and 2.504 (0.5×). 0.2 μM FICZ was added to cultures at Day 7 and media was added daily. DMSO was used as a vehicle control.

Assay [1] concerns red cell-depleted bone marrow from C57BL/6 mice. In words: MEP production in murine bone marrow culture (FACS). It counts as cell-based, mouse. As to conditions: 0.2 μM FICZ, 3 days, versus vehicle. On the procedure:
Representative FACS analysis dot plots of red cell depleted C57B6 bone marrow grown for 3 days in +/−0.2 μM FICZ. 1×10^5 cells were initially treated with CD16/32 Fc receptor block, followed by directly conjugated monoclonal antibodies for the designated markers.
Roughly 10^5 cells were collected, spun, and re-suspended in 0.5% BSA in PBS. Samples were incubated for 30 min at ambient temperature with human antibodies including CD41a-FITC (BD 555466), CD235-PE (BD 555570), CD71-FITC (BD 555536), washed and spun at 3300 rpm for 7 min, and re-suspended in 0.5% BSA in PBS with 1 ug/ml Propidium Iodide. Samples were run on a BD FACScalibur using Cellquest Pro software and analyzed via FloJo 8.7. For ploidy analysis, cells were treated with 1.5% NP-40 (Boston Bioproducts P-872) and 62.5 ug/ml Propidium Iodide in PBS immediately before FACScalibur interrogation. For murine bone marrow, samples were first incubated for 5 min at ambient temperature with murine conjugated antibody CD16/32 (BD 553142) before a 30 min incubation with c-Kit-PE (BD 553355), CD41a-FITC (BD 553848), Ter119-PE (BD 553673). For cell viability assays, 2-3×10 ^5 cells were collected, re-suspended in 8.8 ug/ml Hoecsht 33342 in PBS supplemented with 5% FBS. […] Samples were run on an LSR-II machine with FACSDiva software and analyzed via FloJo 8.7. […]

Take `O=Cc1c2c(cc3c1=Nc1ccccc1-3)=Nc1ccccc1-2` [FICZ, 6-formylindolo[3,2-b]carbazole]: in the assay with iPSC-derived MEPs (after addition of FICZ to cultures), the “expansion of MEPs (cell number)” value is on record as “from a few thousand to a billion cells in a few weeks”. Besides, in the assay on iPSC-derived MEPs (day 15 MEPs +/-0.2 μm FICZ, 2 week growth period, versus untreated), the “growth of MEPs” value is recorded as “logarithmic expansion”. Besides, the “time cells could be cultured” value with iPSC-derived MEPs (iPSC-derived MEPs under AhR agonism) is > 120 days. Moreover, the “CD41+ Ter119+ MEPs in culture” value in assay [1] is recorded as “distinct populations”.
